Patent US5688807A, “Method for treating 5HT2B receptor related conditions” (Eli Lilly and Company, priority 1995, dated 1997)
Where a name gives a salt, the structure may show the parent alone. Read-outs that look alike come from different tables or passages of the source.

Columns and labels:
Human 5-HT2A = Human 5-HT2A (Homo sapiens, UniProt P28223); assay: [125I]DOI radioligand binding, human 5-HT2A
Human 5-HT2B = target: T1, Human 5-HT2B (Homo sapiens, UniProt P41595); assay: [3H]Serotonin radioligand binding, human 5-HT2B;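 also: competition of tritiated serotonin binding to cell membranes, bound radioactivity on filters counted by liquid scintillation, IC50 from logistic fits converted to Ki with the Cheng-Prusoff equation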
T1 construct: expressed in transfected cells
T1 sequence (P41595 whole entry): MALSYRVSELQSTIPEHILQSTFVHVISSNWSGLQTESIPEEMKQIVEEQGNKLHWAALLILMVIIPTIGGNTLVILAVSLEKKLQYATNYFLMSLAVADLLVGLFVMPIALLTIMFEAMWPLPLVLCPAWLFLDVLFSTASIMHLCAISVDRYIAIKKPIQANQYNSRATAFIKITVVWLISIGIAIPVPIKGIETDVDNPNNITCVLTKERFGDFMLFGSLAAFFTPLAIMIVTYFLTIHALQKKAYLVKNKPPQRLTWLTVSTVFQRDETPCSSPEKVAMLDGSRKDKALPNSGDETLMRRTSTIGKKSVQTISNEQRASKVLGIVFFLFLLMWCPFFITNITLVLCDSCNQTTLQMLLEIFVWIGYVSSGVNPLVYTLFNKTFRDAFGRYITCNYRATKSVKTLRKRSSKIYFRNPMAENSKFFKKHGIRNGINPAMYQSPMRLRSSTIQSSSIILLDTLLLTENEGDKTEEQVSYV

[1] = target: 5-HT2B receptor (rat stomach fundus) (Rattus norvegicus, UniProt P30994);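 also: isometric contraction of isolated male Wistar rat stomach fundus strips, serotonin concentration-response curves after antagonist incubation, KB from dose ratio of agonist potency versus control curve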
Sequence of 5-HT2B receptor (rat stomach fundus) (P30994 whole entry): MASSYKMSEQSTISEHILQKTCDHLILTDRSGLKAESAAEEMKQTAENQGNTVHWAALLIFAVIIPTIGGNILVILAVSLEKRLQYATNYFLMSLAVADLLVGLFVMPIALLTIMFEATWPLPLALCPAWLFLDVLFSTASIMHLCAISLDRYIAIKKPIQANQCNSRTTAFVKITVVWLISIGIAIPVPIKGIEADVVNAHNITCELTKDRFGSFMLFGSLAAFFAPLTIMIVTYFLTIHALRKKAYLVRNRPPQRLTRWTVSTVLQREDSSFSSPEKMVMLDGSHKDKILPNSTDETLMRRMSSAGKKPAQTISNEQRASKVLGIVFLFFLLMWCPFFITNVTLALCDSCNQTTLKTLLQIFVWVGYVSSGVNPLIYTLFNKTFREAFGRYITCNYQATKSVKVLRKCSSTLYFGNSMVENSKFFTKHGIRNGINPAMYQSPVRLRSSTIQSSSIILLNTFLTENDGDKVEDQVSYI

rat 5-HT2B receptor = rat 5-HT2B receptor (Rattus norvegicus, UniProt P30994); assay: biochemical; assay type: binding;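 also: displacement of [3H]5-HT from membranes of suspension cells carrying cloned rat 5-HT2B receptor, incubated 15 min at 37 °C or 2 h at 0 °C, filter-bound radioactivity counted by scintillation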
Sequence of rat 5-HT2B receptor (P30994 whole entry): as above

[2] = [3H]Serotonin, 5-HT2B cells, AVG, read-out: Ki Human 5-HT2B
[3] = rat stomach fundus, vs serotonin, ± standard error, read-out: 5-HT2B (Fundus) -log KB (converted)

Sequence of Human 5-HT2A (P28223 whole entry): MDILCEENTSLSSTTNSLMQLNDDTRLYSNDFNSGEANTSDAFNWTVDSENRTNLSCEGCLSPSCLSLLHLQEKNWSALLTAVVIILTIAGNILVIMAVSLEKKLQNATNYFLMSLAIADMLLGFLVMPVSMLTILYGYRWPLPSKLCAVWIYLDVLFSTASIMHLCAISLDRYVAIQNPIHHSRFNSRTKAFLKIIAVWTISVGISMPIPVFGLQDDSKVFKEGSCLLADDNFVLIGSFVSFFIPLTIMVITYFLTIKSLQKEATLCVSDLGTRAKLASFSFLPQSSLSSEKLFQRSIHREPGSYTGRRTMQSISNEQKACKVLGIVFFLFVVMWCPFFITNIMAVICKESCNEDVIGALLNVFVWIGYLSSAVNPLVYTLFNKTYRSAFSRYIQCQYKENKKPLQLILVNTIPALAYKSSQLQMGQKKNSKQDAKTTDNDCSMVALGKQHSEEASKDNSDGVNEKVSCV

CCCNC1CCc2cccc(-c3ccno3)c2C1 (stereo not drawn)
Ki (Human 5-HT2A): 6030 nM | Ki (Human 5-HT2B; [2]): 1020 nM

COc1ccc(CC2NCCc3c2[nH]c2ccc(C)cc32)c(Br)c1OC (stereo not drawn)
Ki (Human 5-HT2A): 12.2 nM | Ki (Human 5-HT2B): 0.37 nM

CC(N)Cc1c[nH]c2ccc(O)cc12 (stereo not drawn)
Ki (Human 5-HT2B): 11.9 nM

COc1ccc(C(C)C2NCCc3c2[nH]c2ccc(C(C)C)cc32)cc1OC (stereo not drawn)
Ki (Human 5-HT2A): 201 nM | Ki (Human 5-HT2B; [2]): 3.46 nM

CCCN(CCC)C1CCc2cccc(-c3ccno3)c2C1 (stereo not drawn)
Ki (Human 5-HT2A; read-out: Ki Human 5-HT2A, [125I]DOI, AVG): 354 nM | Ki (Human 5-HT2B; [2]): 509 nM

CN1CC(C(=O)NC2CCCC2O)CC2c3cccc4[nH]cc(c34)CC21 (stereo not drawn)
Ki (Human 5-HT2B): 7.87 nM

CCCNC1CCc2cccc(C(C)=O)c2C1 (stereo not drawn)
Ki (Human 5-HT2B; [2]): 1790 nM

COc1ccc(CC2NCCc3c2[nH]c2c(C)cccc32)cc1OC (stereo not drawn) [drawing 182]
Ki (Human 5-HT2A): 49.7 nM | Ki (Human 5-HT2B; [2]): 1.69 nM

CCCN(CCC)[C@@H]1CCc2cccc(-c3ccon3)c2C1
Ki (Human 5-HT2A): 127 nM | Ki (Human 5-HT2B; [2]): 784 nM

COc1ccc(CC2NCCc3c2[nH]c2ccc(C)cc32)cc1OC (stereo not drawn) [drawing 144]
Ki (Human 5-HT2A): 28.1 nM

CCc1ccc2[nH]c3c(c2c1)CCNC3C(C)c1ccc(OC)c(OC)c1 (racemic) [Example 42, (±) 6-ethyl-1-[(3,4-dimethoxyphenyl)-1-ethyl]-1,2,3,4-tetrahydro-9H-pyrido[3,4-b]indole (Z)-2-butenedioate]
Kb [1, 3]: 0.275 nM

COc1cc(CC2NCCc3c2[nH]c2ccc(C)cc32)cc([N+](=O)[O-])c1OC (stereo not drawn) [Example 28, 6-methyl-1-[(3,4-dimethoxy-5-nitrophenyl)-methyl]-1,2,3,4-tetrahydro-9H-pyrido[3,4-b]indole hydrochloride]
Kb [1, 3]: 2.82 nM

CC(C)n1cc2c3c(cccc31)C1CC(C(=O)NC3CCCC3O)CN(C)C1C2 (stereo not drawn)
Ki (Human 5-HT2A; [125I]DOI, AVG, read-out: Ki Human 5-HT2A): 21.9 nM | Ki (Human 5-HT2B; read-out: Ki Human 5-HT2B, [3H]Serotonin, 5-HT2B cells, AVG): 2.24 nM

CCCN(CCC)[C@H]1CCc2cccc(-c3ccon3)c2C1
Ki (Human 5-HT2A): 5690 nM | Ki (Human 5-HT2B; [2]): 257 nM

COc1ccc(CC2c3[nH]c4ccc(C(C)C)cc4c3CCN2C)cc1OC (stereo not drawn) [Example 45, 2-methyl-6-(1-methylethyl)-1,2,3,4-tetrahydro-1-[(3,4-dimethoxyphenyl)methyl]-9H-pyrido-[3,4b]indole maleate]
5-HT2B (Fundus) -log KB ([1]; rat stomach fundus, vs serotonin, ± standard error): 8.14 ± 0.32

CC(C)n1cc2c3c(cccc31)C1CC(C(=O)NCCN3CCN(c4ccccc4)CC3)CN(C)C1C2 (stereo not drawn)
Ki (Human 5-HT2A; Ki Human 5-HT2A, [125I]DOI, AVG): 32.7 nM | Ki (rat 5-HT2B receptor; Ki Rat 5-HT2B, [3H]Serotonin, 5-HT2B cells, AVG): 11.9 nM

COc1ccc(CC2c3[nH]c4ccc(C)cc4c3CCN2C)c(Cl)c1OC (stereo not drawn) [Example 44, 2,6-dimethyl-1-[(2-chloro-3,4-dimethoxyphenyl)methyl]-1,2,3,4-tetrahydro-9H-pyrido[3,4-b]indole hydrochloride]
Kb [1, 3]: 3.98 nM

Cc1ccc2[nH]c3c(c2c1F)CCNC3Cc1cccc2ccccc12 (racemic) [Example 59, (+/-) 5-fluoro-6-methyl-1-(1-naphthalenylmethyl)-1,2,3,4-tetrahydro-9H-pyrido [3,4-b] indole (Z)-2-butenedioate]
Kb [1, 3]: 0.204 nM

COc1ccc(C(C)C2NCCc3c2[nH]c2ccc(C)cc32)cc1OC (racemic) [Example 40]
Kb [1, 3]: 0.178 nM

COc1ccc(CC2NCCc3c2[nH]c2ccc(C)c(F)c32)cc1OC (stereo not drawn) [Example 9, 5-fluoro-6-methyl-1-[(3,4-dimethoxyphenyl)-methyl]-1,2,3,4-tetrahydro-9H-pyrido[3,4-b]indole]
Kb [1, 3]: 0.501 nM

COc1ccc(CC2NCCc3c2[nH]c2cc(C)cc(C)c32)cc1OC (stereo not drawn) [Example 15, 5,7-dimethyl-1,2,3,4-tetrahydro-1-[(3,4-dimethoxyphenyl)methyl]-9H-pyrido[3,4b]indole hydrochloride]
Kb [1, 3]: 0.457 nM

Cc1ccc2c3c([nH]c2c1Br)C(Cc1cccc2ccccc12)NCC3 (racemic) [Example 56, (±) 7-methyl-8-bromo-1-(1-naphthalenylmethyl)-1,2,3,4-tetrahydro-9H-pyrido [3,4-b]indole hydrochloride]
Kb [1, 3]: ~29.5 nM

COc1ccc(CC2NCCc3c2[nH]c2ccc(C4CCCCC4)cc32)cc1OC (stereo not drawn) [Example 11, 6-cyclohexyl-1-[(3,4-dimethoxyphenyl)-methyl]-1,2,3,4-tetrahydro-9H-pyrido[3,4-b]indole hydrochloride]
Kb [1, 3]: > 30.2 nM

CCC(c1ccc(OC)c(OC)c1)C1NCCc2c1[nH]c1ccc(C)cc21 (racemic) [Example 43, (±) 6-methyl-1-[(3,4-dimethoxyphenyl)-1-propyl]-1,2,3,4-tetrahydro-9H-pyrido[3,4-b]indole (Z)-2-butenedioate]
Kb [1, 3]: 0.363 nM

COc1ccc(CC2NCCc3c2[nH]c2c(Br)c(C)ccc32)cc1OC (stereo not drawn) [Example 7, 7-methyl-8-bromo-1-[(3,4-dimethoxyphenyl)-methyl]-1,2,3,4-tetrahydro-9H-pyrido[3,4-b]indole hydrochloride]
Kb [1]: 0.955 nM

COc1ccc(CC2NCCc3c2[nH]c2c(Br)cc(Br)cc32)cc1OC (stereo not drawn) [Example 3, 6,8-dibromo-1-[(3,4-dimethoxyphenyl)methyl]-1,2,3,4-tetrahydro-9H-pyrido[3,4-b]indole]
Kb [1, 3]: 1.66 nM

Cc1ccc2[nH]c3c(c2c1)CCNC3C(C)c1cccc2ccccc12 (racemic) [Example 49, (±) 6-methyl-1-(1-naphthalenyl-1-ethyl)-1,2,3,4-tetrahydro-9H-pyrido [3,4-b]indole (Z) 2-butenedioate]
Kb [1, 3]: ~0.0389 nM | Ki (rat 5-HT2B receptor; Radioligand assay, Table III, read-out: pKi (converted)): 3.98 nM

COc1c(O)ccc(CC2NCCc3c2[nH]c2ccc(C)cc32)c1Cl (stereo not drawn) [Example 37, 6-methyl-1-[(2-chloro-3-methoxy-4-hydroxyphenyl)methyl]-1,2,3,4-tetrahydro-9H-pyrido[3,4-b]-indole hydrochloride]
Kb [1, 3]: 0.646 nM

Cc1ccc2[nH]c3c(c2c1)CCNC3CC1CCCCC1 (stereo not drawn) [Example 39, 6-methyl-1-(cyclohexylmethyl)-1,2,3,4-tetrahydro-9H-pyrido[3,4-b]indole hydrochloride]
Kb [1, 3]: 4.79 nM

COc1cc(CC2NCCc3c2[nH]c2ccc(C)cc32)cc(N)c1OC (stereo not drawn) [Example 30, 6-methyl-1-[(3,4-dimethoxy-5-amino-phenyl)-methyl]-1,2,3,4-tetrahydro-9H-pyrido[3,4-b]indole dihydrochloride]
Kb [1, 3]: 1.29 nM

COc1ccc(CC2NCCc3c2[nH]c2ccc(C(C)(C)C)cc32)cc1OC (stereo not drawn) [Example 8, 6-(1,1-dimethylethyl)-1-[(3,4-dimethoxyphenyl)methyl]1,2,3,4-tetrahydro-1-9H-pyrido-[3,4b]indole hydrochloride]
Kb [1, 3]: 3.55 nM

COc1ccc(CC2NCCc3c2[nH]c2c(C)cccc32)cc1OC (stereo not drawn) [Example 1, 8-methyl-1-[(3,4-dimethoxyphenyl)methyl]-1,2,3,4-tetrahydro-9H-pyrido[3,4-b]indole]
Kb [1, 3]: 1 nM

COc1ccc(CC2NCCc3c2[nH]c2ccc(C)cc32)cc1O (stereo not drawn)
Ki (Human 5-HT2A): 54.9 nM | Ki (Human 5-HT2B; [2]): 1.47 nM

CC(C)(C)c1ccc2[nH]c3c(c2c1)CCNC3Cc1cccc2ccccc12 (racemic) [Example 61, (+/-) 6-(1,1-dimethylethyl)-1,2,3,4-tetrahydro-1-(1-naphthalenylmethyl)-9H-pyrido [3,4b] indole (Z)-2-butenedioate]
Kb [1, 3]: 3.63 nM

COc1ccc(CC2NCCc3c2[nH]c2c3ccc3ccccc32)cc1OC (stereo not drawn) [Example 10, 7,8,9,10-tetrahydro-10-[(3,4-dimethoxyphenyl)methyl]-11H-benzo[g]pyrido[3,4-b]indole]
Kb [1, 3]: 0.603 nM

COc1ccc(CC2NCCc3c2[nH]c2ccc(Br)cc32)cc1OC (stereo not drawn) [Example 18, 6-bromo-1,2,3,4-tetrahydro-1-[(3,4-dimethoxyphenyl)methyl]-9H-pyrido[3,4b]indole]
Kb [1, 3]: 1.58 nM

COc1ccc(CC2NCCc3c2[nH]c2c(C)ccc(C)c32)cc1OC (stereo not drawn) [Example 12, 5,8-dimethyl-1,2,3,4-tetrahydro-1-[(3,4-dimethoxyphenyl)methyl]-9H-pyrido[3,4b]indole hydrochloride]
Kb [1, 3]: 0.513 nM

COc1ccc(CC2NCCc3c2[nH]c2c(F)cc(F)cc32)cc1OC (stereo not drawn) [Example 6, 6,8-difluoro-1-[(3,4-dimethoxyphenyl)-methyl]-1,2,3,4-tetrahydro-9H-pyrido[3,4-b]indole]
Kb [1, 3]: 0.251 nM

CCCN(CCC)C1CCc2cccc(C(=O)C(C)(C)C)c2C1 (single isomer, unassigned)
Ki (Human 5-HT2A): 2230 nM | Ki (Human 5-HT2B; [2]): 4750 nM

c1ccc2c(N3CCNCC3)cccc2c1
Ki (Human 5-HT2B): 3.79 nM | Ki (rat 5-HT2B receptor; [3H]Serotonin, 5-HT2B cells, AVG, read-out: Ki Rat 5-HT2B): 4.5 nM

Cc1ccc2[nH]c3c(c2c1)CCN(C)C3Cc1cccc2ccccc12 (racemic) [Example 58, (+/-) 2,6-dimethyl-1-(1-naphthalenylmethyl)-1,2,3,4-tetrahydro-9H-pyrido [3,4-b] indole hydrochloride]
Kb [1, 3]: > 30.2 nM

c1ccc2c(CC3NCCc4c3[nH]c3c4ccc4ccccc43)cccc2c1 (racemic) [Example 60, (+/-) 7,8,9,10-tetrahydro-10-(1-naphthalenylmethyl)-11H-benzo [g] pyrido [3,4-b] indole (Z)-2-butenedioate]
Kb [1, 3]: 1.2 nM

COc1ccc(CC2NCCc3c2[nH]c2c(C)c(C)ccc32)cc1OC (stereo not drawn) [Example 19, 7,8-dimethyl-1,2,3,4-tetrahydro-1-[(3,4-dimethoxyphenyl)methyl]-9H-pyrido[3,4b]indole hydrochloride]
Kb [1]: 0.0759 nM

CCc1ccc2[nH]c3c(c2c1)CCNC3Cc1cccc2ccccc12 (stereo not drawn)
Ki (Human 5-HT2A): 6.71 nM | Ki (Human 5-HT2B; [2]): 2.08 nM

Cc1ccc2[nH]c3c(c2c1)CCNC3Cc1ccc(C)c(C)c1 (stereo not drawn) [Example 35, 6-methyl-1-[(3,4-dimethylphenyl)methyl]-1,2,3,4-tetrahydro-9H-pyrido[3,4-b]indole hydrochloride]
Kb ([1]; read-out: 5-HT2B (Fundus) -log KB (converted)): ~0.871 nM

Cc1ccc2[nH]c3c(c2c1)CCN[C@H]3Cc1cccc2ccccc12 [Example 64, (-)-(S)-6-methyl-1,2,3,4-tetrahydro-1-(1-naphthalenylmethyl)-9H-pyrido [3,4-b] indole hydrochloride]
Kb [1, 3]: 0.186 nM
